Data as given in patent US20130269064A1, “INSECTICIDAL COMPOUNDS” (SYNGENTA PARTICIPATIONS AG, priority 2010, published 2013).

Columns and labels:
Type in all cases: in vivo
Spodoptera littoralis = Spodoptera littoralis (Egyptian cotton leafworm) cotton leaf disc test; settings: foliar, 72 h, 200 ppm sprayed on cotton leaf discs, 5 L1 larvae, mortality, feeding behaviour, growth regulation 3 DAT
Source text: Spodoptera littoralis (Egyptian Cotton Leafworm): Cotton leaf discs were placed on agar in a 24-well microtiter plate and sprayed with test solutions at an application rate of 200 ppm. After drying, the leaf discs were infested with 5 L1 larvae. The samples were checked for mortality, feeding behaviour, and growth regulation 3 days after treatment (DAT).

Plutella xylostella = Plutella xylostella (diamond back moth) artificial diet test; settings: 144 h, 200 ppm (concentration in well 18 ppm), L2 larvae, 6 days, larval mortality and growth regulation
Description: Plutella xylostella (Diamond Back Moth): A 24-well microtiter plate (MTP) with artificial diet was treated with test solutions at an application rate of 200 ppm (concentration in well 18 ppm) by pipetting. After drying, the MTP's were infested with L2 larvae (7-12 per well). After an incubation period of 6 days, samples were checked for larval mortality and growth regulation.

Diabrotica balteata = Diabrotica balteata (corn root worm) artificial diet test; settings: 120 h, 200 ppm (concentration in well 18 ppm), L2 larvae, 5 days, larval mortality and growth regulation
Description: Diabrotica balteata (Corn Root Worm): A 24-well microtiter plate (MTP) with artificial diet was treated with test solutions at an application rate of 200 ppm (concentration in well 18 ppm) by pipetting. After drying, the MTP's were infested with larvae (L2) (6-10 per well). After an incubation period of 5 days, samples were checked for larval mortality, and growth regulation.

Thrips tabaci = Thrips tabaci (onion thrips) sunflower leaf disc test; settings: foliar, 168 h, 200 ppm sprayed on sunflower leaf discs, mixed ages, 7 days, mortality
Description: Thrips tabaci (Onion Thrips): Sunflower leaf discs were placed on agar in a 24-well microtiter plate and sprayed with test solutions at an application rate of 200 ppm. After drying, the leaf discs were infested with an […] population of mixed ages. After an incubation period of 7 days, samples were checked for mortality.

Tetranychus urticae = Tetranychus urticae (two-spotted spider mite) bean leaf disc test; settings: foliar, 192 h, 200 ppm sprayed on bean leaf discs, mixed ages, 8 days, egg, larval and adult mortality
Source text: Tetranychus urticae (Two-Spotted Spider Mite): Bean leaf discs on agar in 24-well microtiter plates were sprayed with test solutions at an application rate of 200 ppm. After drying, the leaf discs are infested with mite populations of mixed ages. 8 days later, discs are checked for egg mortality, larval mortality, and adult mortality.

Heliothis virescens = Heliothis virescens (tobacco budworm) egg/artificial diet test; settings: 96 h, 200 ppm (concentration in well 18 ppm), eggs 0-24 h old on artificial diet, 4 days, egg mortality, larval mortality, growth regulation
Description: Heliothis virescens (Tobacco Budworm): Eggs (0-24 h old) were placed in 24-well microtiter plate on artificial diet and treated with test solutions at an application rate of 200 ppm (concentration in well 18 ppm) by pipetting. After an incubation period of 4 days, samples were checked for egg mortality, larval mortality and growth regulation.

Measured: pest or weed control at 200 ppm

Cn1nc(C(F)(F)C(F)(F)F)c(C(F)(F)F)c1NC(=O)c1cccc(NC(=O)c2ccc(F)cc2)c1 [Compound D17]
not listed: Heliothis virescens
≥ 80%: all other assays above

Cn1nc(C(F)(F)C(F)(F)F)c(C(F)(F)F)c1NC(=O)c1cccc(NC(=O)c2ccc(F)cc2Cl)c1 [Compound D19]
not listed: Heliothis virescens
≥ 80%: all other assays above

Cc1cc(C#N)ccc1C(=O)Nc1cc(C(=O)Nc2c(C(F)(F)F)c(C(F)(F)C(F)(F)F)nn2C)ccc1C#N [Compound A1, 3-(4-cyano-2-methyl-Benzoyl) amino-4-cyano-N-(2-methyl-5-pentafluoroethyl-4-trifluoromethyl-2H-pyrazol-3-yl)-benzamide]
≥ 80%: Heliothis virescens | Diabrotica balteata | Thrips tabaci | Tetranychus urticae

Cn1nc(C(F)(F)C(F)(F)F)c(C(F)(F)F)c1NC(=O)c1cccc(NC(=O)c2ccccc2)c1F [Compound B16]
≥ 80%: all assays above

Cn1nc(C(F)(F)C(F)(F)F)c(C(F)(F)F)c1NC(=O)c1cccc(NC(=O)c2cc(Cl)ccc2F)c1 [Compound D8]
≥ 80%: all assays above

Cn1nc(C(F)(F)C(F)(F)F)c(C(F)(F)F)c1NC(=O)c1cccc(NC(=O)c2ccc(C(F)(F)F)cc2)c1 [Compound D13]
not listed: Tetranychus urticae
≥ 80%: all other assays above

Cn1nc(C(F)(F)C(F)(F)F)c(C(F)(F)F)c1NC(=O)c1cccc(NC(=O)c2ccc([N+](=O)[O-])cc2Cl)c1 [Compound D9]
≥ 80%: Diabrotica balteata | Thrips tabaci | Tetranychus urticae
